Assay results published in patent US20090156563A1, “Glucan Compositions” (priority 2005, published 2009).

System: skin of the forearm
Assay: Determination of skin roughness (DIN 4768ff, profilometry of silicone skin impressions)
Assay type: in vivo, human
Details: 10% glyceryl stearate, 8 hours after application
Protocol: An aqueous lotion for the treatment of skin roughness is formulated from an aqueous emulsion containing 10% by weight of glyceryl stearate and either 0.005% or 0.05% or 0.5% by weight of β-1,3-scleroglucan (using formulations A-D described further above).
The determination of skin roughness is conducted according to German standard DIN 4768ff. The roughness of the skin is determined by taking silicone-based skin impressions and then measuring the surface profile of the impressions, using computer-aided profilometry. The skin roughness is calculated from the multiple measuring points (100 points per square millimeter). The number of volunteers used is 10. The determination of skin roughness is conducted both prior to application of the test lotion and 8 hours after application of the test lotion. The skin of the forearm is used as the skin test area. For the purpose of comparison, a control experiment is conducted using a placebo containing none of the scleroglucan formulations.

Q: With β-1,3-scleroglucan as the substance, how does the “reduction of skin roughness (relative to untreated skin)” value (lotion with 0.005% by weight β-1,3-scleroglucan (formulations A-D)) read?
A: good reduction

Q: What about the “reduction of skin roughness (relative to untreated skin)” value (lotion with 0.05% by weight β-1,3-scleroglucan (formulations A-D)) of the same substance?
A: good reduction
